The source of these data is article PMC10581193 (Microbiology Spectrum, 2023).

Converted amounts (≈) assume the structure as drawn.

The subject of one data set is S. aureus ATCC33591. In words: MIC against other strains, agar double dilution. To be noted: Staphylococcus aureus, ATCC33591, 24 h.
Data set [1] relates to Klebsiella pneumoniae ATCC700603. The data set is described as follows: MIC against other strains, agar double dilution. To be noted: ATCC700603, 24 h.
Another data set concerns M. tuberculosis H37Ra. The data set is described as follows: microbe, parasite or virus in culture. It is filed as cell-based, Mycobacterium tuberculosis. The note with it: for MIC: Mycobacterium tuberculosis, H37RA, read-out: MIC against H37Ra.
For data set [2], the system named is Escherichia coli ATCC25922. In words: MIC against other strains, agar double dilution. The note with it: ATCC25922, 24 h.
A further data set concerns Y17 (MDR). The data set is described as follows: microbe, parasite or virus in culture. To be noted: for MIC: Mycobacterium tuberculosis. The format is cell-based, M. tuberculosis.
Data set [3] has as its system Streptococcus pneumoniae ATCC49619. In words: MIC against other strains, agar double dilution. To be noted: ATCC49619, 24 h.
The test system of a further data set is VERO. The data set is described as follows: Cell viability assay (MTT), VERO. It is filed as cell-based. To be noted: Chlorocebus sabaeus, 48 h. On the procedure: (§1) Cell viabilities were measured by 3-(4,5-dimethylthiazol-2-yl)−2,5-diphenyltetrazolium bromide (MTT) assay. Briefly, 20 µL of 5 mg/mL MTT solution was added to the culture medium and incubated at 37°C for 3 h. Then 50 µL of 20% (wt/vol) SDS was directly added to each well and incubated at 37°C overnight. The plates were shaken for 15 s and the […] reading were obtained at 570 nm wavelength. The IC50 values were calculated using the GraphPad Prism 8 software.

For another data set, the system named is A549. In words: Cell viability assay (MTT), A549. It is filed as cell-based. The note with it: Homo sapiens, 48 h. As for the experimental part:
as §1

The subject of the next data set is Y48 (MDR). The data set is described as follows: microbe, parasite or virus in culture. It is filed as cell-based, M. tuberculosis. The note with it: for MIC: Mycobacterium tuberculosis.
Another data set relates to Y198 (XDR). In words: microbe, parasite or virus in culture. The format is cell-based, M. tuberculosis. The note with it: for MIC: Mycobacterium tuberculosis.
For data set [4], the system named is Staphylococcus aureus ATCC29213. The data set is described as follows: MIC against other strains, agar double dilution. The note with it: ATCC29213, 24 h.
Data set [5] deals with Pseudomonas aeruginosa ATCC27853. In words: MIC against other strains, agar double dilution. To be noted: ATCC27853, 24 h.
For the next data set, the system named is E. faecium ATCC19434. The data set is described as follows: MIC against other strains, agar double dilution. To be noted: Enterococcus faecium, ATCC19434, 24 h.
In a further data set the test system is E. coli ATCC35218. The data set is described as follows: MIC against other strains, agar double dilution. The note with it: Escherichia coli, ATCC35218, 24 h.
The next data set deals with S. epidermidis ATCC12228. The data set is described as follows: MIC against other strains, agar double dilution. To be noted: Staphylococcus epidermidis, ATCC12228, 24 h.
Data set [6] has as its system Enterococcus faecalis ATCC29212. In words: MIC against other strains, agar double dilution. To be noted: ATCC29212, 24 h.
The next data set concerns H37Rv. The data set is described as follows: MIC susceptibility testing against H37Rv. The format is cell-based, Mycobacterium tuberculosis. The note with it: for MIC: Mycobacterium tuberculosis; for Fold increase: B18 versus TBA-7371.
A short description of a further data set: physchem. The format is physicochemical. The note with it: 37 °C, water, thermodynamic from solid.
A further data set in a line: in vitro. The format is in vitro ADME. The note with it: rat, plasma, pH 7.4.
The next data set addresses T1, human PDE6C (Homo sapiens, UniProt P51160).
T1 construct: purchased BPS 60060
In words: IMAP fluorescence polarization assay against PDE6C. The format is biochemical. In general terms: Polarisation of emitted light reports the rotation of a fluorescent probe.

T1 sequence (P51160 whole entry): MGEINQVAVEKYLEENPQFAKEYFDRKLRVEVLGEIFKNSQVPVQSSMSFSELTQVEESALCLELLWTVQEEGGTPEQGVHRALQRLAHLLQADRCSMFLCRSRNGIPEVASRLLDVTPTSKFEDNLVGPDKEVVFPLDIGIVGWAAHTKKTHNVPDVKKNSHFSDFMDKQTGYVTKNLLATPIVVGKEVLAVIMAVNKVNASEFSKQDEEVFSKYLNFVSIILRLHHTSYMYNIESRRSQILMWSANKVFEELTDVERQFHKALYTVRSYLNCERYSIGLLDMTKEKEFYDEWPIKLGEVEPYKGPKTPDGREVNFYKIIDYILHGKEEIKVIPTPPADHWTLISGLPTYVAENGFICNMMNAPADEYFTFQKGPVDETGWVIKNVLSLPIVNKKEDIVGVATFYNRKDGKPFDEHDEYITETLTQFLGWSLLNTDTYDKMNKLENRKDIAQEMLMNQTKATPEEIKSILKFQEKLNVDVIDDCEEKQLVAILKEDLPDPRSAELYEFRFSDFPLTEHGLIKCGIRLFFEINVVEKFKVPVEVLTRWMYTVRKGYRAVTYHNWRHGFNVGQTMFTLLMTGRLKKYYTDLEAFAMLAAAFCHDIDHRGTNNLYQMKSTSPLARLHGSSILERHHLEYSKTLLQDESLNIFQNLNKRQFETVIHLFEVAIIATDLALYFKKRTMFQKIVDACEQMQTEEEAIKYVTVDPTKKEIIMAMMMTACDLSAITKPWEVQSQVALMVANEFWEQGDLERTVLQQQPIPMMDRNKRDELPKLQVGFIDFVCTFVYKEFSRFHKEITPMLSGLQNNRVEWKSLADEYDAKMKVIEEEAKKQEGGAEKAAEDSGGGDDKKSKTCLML
Method for human PDE6C: Prepare assay buffer and stop buffer were prepared. […] Fluorescein Amidite - cyclic Guanosine Monophosphate (FAM-cGMP) was added in the 1× assay buffer for PDE6C, which was the 2× substrate solution. Two times enzyme solution was transferred to the assay plate: (i) assay plate already contained corresponding volume of compound in 100% DMSO; (ii) add 2× enzyme solution to each well of the 384-well assay plate; and (iii) incubate at room temperature for 15 min. Two times substrate solution was transferred to the assay plate. PDE reaction and termination: (i) incubate at 25°C for 40 min; (ii) add stop buffer to stop reaction, and incubate at RT for 60 min. Data were collected on Envision (Perkin Elmer). Data were fitted in Excel to obtain inhibition values using equation (1). Equation (1): Inh % = (Max − Signal)/(Max − Min) × 100. Fit the data in XL-Fit to obtain IC50 values using equation (2). Equation (2): Y = Bottom + (Top − Bottom)/[1 + (IC50/X) × HillSlope]. Y is the % inhibition and X is the compound concentration.
Method for in vitro: 0.1 M sodium phosphate and 0.15 M NaCl buffer (pH = 7.4 ± 0.1) were preheated. The frozen plasma was thawed at 37°C. Plasma was centrifuged at 12,000 rpm for 5 min to remove clots. Pipette and collect the supernatant as the plasma to be used in the experiment. Dialysis membrane strips were soaked in distilled water for an hour. Add 20% by volume ethanol and soak for a further 20 min. The membrane strips were then rinsed in distilled water three times before use. Five microliters of 10 mM stock solution were added into 95 µL of acetonitrile (ACN) for reference and test compounds, which was 0.5 mM solution A. Eight microliters of 10 mM stock solution were added into 192 µL of ACN for reference and test compounds, which was 0.02 mM solution B. A 96-well plate with 380 µL aliquots of plasma was preloaded in the wells designated for plasma, respectively. Twenty microliters of solution B (0.02 mM) were spiked into the pre-loaded plasma in the 96-well plate. The final concentration is 1 µM, containing 0.01% DMSO. Aliquots of 100 µL of blank dialysis buffer were applied to the receiver side of dialysis chambers. Then, aliquots of 100 µL of the plasma spiked with test and reference compounds were applied to the donor side of the dialysis chambers (always add the blank buffer to the receiver first, clearly mark the buffer and plasma chamber holes to avoid cross-contamination). […]
Method for physchem: Aqueous solubility of selected compounds was determined by High Performance Liquid Chromatography (HPLC) analysis. […] The absorption intensity of different concentrations of solutions was obtained by HPLC. The linear regression equation between absorption intensity and concentration was obtained by statistical method (R ^2 >0.99). A supersaturated aqueous solution of the target compound was prepared and shaken in 37°C water bath for 24 h. The supersaturated solution was centrifuged and filtered. The absorption intensity of the supersaturated solution was obtained by HPLC. The concentration of saturated aqueous solution was obtained by linear regression equation, which was the aqueous solubility of target compound.

One may read the IC50 as the concentration at which inhibition is half-maximal. Higher therefore signals weaker potency. Regarding `COc1ncnc(Cn2cc(C(=O)NCCO)c3ncc(C)cc32)c1C` [TBA-7371, reference compound], the MIC in the data set with S. aureus ATCC33591 is > 64 µg/mL; in data set [1] it was > 64 µg/mL; in the data set with M. tuberculosis H37Ra, 0.18 µg/mL (≈ 0.506 µM); in [2], > 64 µg/mL; in the data set with Y17 (MDR), 0.6 µg/mL (≈ 1.69 µM); in data set [3] it was > 64 µg/mL. For the same compound, the MIC against Y48 (MDR) was 0.6 µg/mL (≈ 1.69 µM); against Y198 (XDR), 1.25 µg/mL (≈ 3.52 µM); in data set [4], > 64 µg/mL; in [5] it was > 64 µg/mL; in the data set with E. faecium ATCC19434, > 64 µg/mL; against E. coli ATCC35218 it was > 64 µg/mL. Besides, the MIC was > 64 µg/mL in the data set with S. epidermidis ATCC12228; > 64 µg/mL in [6]; 2.5 µg/mL (≈ 7.03 µM) with H37Rv (72 h, 3 days); 0.625 µg/mL (≈ 1.76 µM) against H37Rv (168 h, 7 days). The IC50 in the data set on VERO and with A549 was > 40 µM throughout.

One may read the solubility as the concentration that dissolves in the medium under given conditions. High values mean much dissolved substance, low ones little dissolved substance. By fraction unbound is commonly meant the share of the substance not bound to proteins or other matrix. `Cc1nc(C)c(CN2CCOc3c(C(=O)NCC(F)(F)F)cc(C4CC4)cc32)nc1C` [B18, 6-cyclopropyl-N-(2,2,2-trifluoroethyl)-4-((3,5,6-trimethylpyrazin-2-yl)methyl)-3,4-dihydro-2H-benzo[b][1,4]oxazine-8-carboxamide]: the MIC with S. aureus ATCC33591 was > 64 µg/mL; in data set [1], 64 µg/mL (≈ 147 µM); with M. tuberculosis H37Ra, 0.18 µg/mL (≈ 0.414 µM); in data set [2], 64 µg/mL (≈ 147 µM); in the data set with Y17 (MDR) it was 0.6 µg/mL (≈ 1.38 µM); in data set [3] it was > 64 µg/mL. Besides, the MIC in the data set on Y48 (MDR) was 0.6 µg/mL (≈ 1.38 µM); in the data set with Y198 (XDR) it was 5 µg/mL (≈ 11.5 µM); in data set [4], > 64 µg/mL; in [5] it was 64 µg/mL (≈ 147 µM); with E. faecium ATCC19434 it was > 64 µg/mL; against E. coli ATCC35218 it was > 64 µg/mL. The MIC with S. epidermidis ATCC12228 is > 64 µg/mL; in [6] it was > 64 µg/mL; with H37Rv (72 h, 3 days), 0.625 µg/mL (≈ 1.44 µM); against H37Rv (168 h, 7 days), 0.625 µg/mL (≈ 1.44 µM). Besides, the MBC/MIC in the data set with M. tuberculosis H37Ra is given as < 4. Also, in the data set with M. tuberculosis H37Ra, the “MIC against H37Ra” value worked out at 0.18. The solubility at 24 h in “physchem” was found to be 21 µg/mL (≈ 48.3 µM). In addition, the Fold increase in the data set with Y17 (MDR) ([…], B18 versus TBA-7371) came to 1; in the data set on Y48 (MDR) ([…], B18 versus TBA-7371), 1; in the data set on Y198 (XDR) ([…], B18 versus TBA-7371) it was 0.25; with H37Rv (3 days), 4; in the data set on H37Rv (7 days) it was 1. Besides, the half-inhibitory concentration (IC50) in the data set on VERO is > 40 µM; with A549 it was > 40 µM; against human PDE6C, 81 µM. Besides, the fraction unbound at 5 h, 1 µM in “in vitro” is 0.042.

On to “6-bromo-N-(2,2-difluoroethyl)-4-((2-methoxy-5-(trifluoromethyl)pyridin-3-yl)methyl)-3,4-dihydro-2H-benzo[b][1,4]oxazine-8-carboxamide [B5]”, for which the “MIC against H37Ra” value in the data set with M. tuberculosis H37Ra was > 25 µg/mL.

`Cc1cc(C(=O)NCC(F)(F)F)c2c(c1)N(Cc1nc(C)c(C)nc1C)CCO2` [B12, 6-methyl-N-(2,2,2-trifluoroethyl)-4-((3,5,6-trimethylpyrazin-2-yl)methyl)-3,4-dihydro-2H-benzo[b][1,4]oxazine-8-carboxamide]: in the data set with M. tuberculosis H37Ra, the “MIC against H37Ra” value is ≥ 100 and the MIC turned out to be 100 µg/mL (≈ 245 µM).

On to `Cc1nc(C)c(CN2CCOc3c(C(=O)NCC(C)(F)F)cc(C4CC4)cc32)nc1C` [B29, 6-cyclopropyl-N-(2,2-difluoropropyl)-4-((3,5,6-trimethylpyrazin-2-yl)methyl)-3,4-dihydro-2H-benzo[b][1,4]oxazine-8-carboxamide], for which the MIC in the data set on M. tuberculosis H37Ra is > 25 µg/mL.

`COc1ncnc(Cn2ccc3c(C(=O)NCC(F)F)cc(Br)cc32)c1C` [A4, 6-bromo-N-(2,2-difluoroethyl)-1-((6-methoxy-5-methylpyrimidin-4-yl)methyl)-1H-indole-4-carboxamide]: in the data set with M. tuberculosis H37Ra, the “MIC against H37Ra” value was determined as 0.5 and the MIC stood at 0.5 µg/mL (≈ 1.14 µM).

With `Cc1nc(C)c(CN2CCOc3c(C(=O)N(C)CC(F)(F)F)cc(C4CC4)cc32)nc1C` [B34, 6-cyclopropyl-N-methyl-n-(2,2,2-trifluoroethyl)-4-((3,5,6-trimethylpyrazin-2-yl)methyl)-3,4-dihydro-2H-benzo[b][1,4]oxazine-8-carboxamide], the MIC with M. tuberculosis H37Ra is > 25 µg/mL.

For the compound `COc1ccc(F)c(F)c1Cn1ccc2c(C(=O)NCCF)cc(C)cc21` [A6], in the data set on M. tuberculosis H37Ra, the MIC is > 6.25 µg/mL.

`Cc1cc(C(=O)NCC(F)F)c2ccn(Cc3nc(C)c(C)nc3C)c2c1` [A8, N-(2,2-difluoroethyl)-6-methyl-1-((3,5,6-trimethylpyrazin-2-yl)methyl)-1H-indole-4-carboxamide]: the MIC in the data set with M. tuberculosis H37Ra was > 6.25 µg/mL.

For `COc1ccc(F)c(F)c1Cn1ccc2c(C(=O)NCC(F)F)cc(C)cc21` [A7, 1-(2,3-difluoro-6-methoxybenzyl)-N-(2,2-difluoroethyl)-6-methyl-1H-indole-4-carboxamide], the MIC in the data set on M. tuberculosis H37Ra was > 6.25 µg/mL.

For the compound `Cc1nc(C)c(CN2CCOc3c(C(=O)NCCCC(F)(F)F)cc(C4CC4)cc32)nc1C` [B31, 6-cyclopropyl-N-(4,4,4-trifluorobutyl)-4-((3,5,6-trimethylpyrazin-2-yl)methyl)-3,4-dihydro-2H-benzo[b][1,4]oxazine-8-carboxamide], in the data set with M. tuberculosis H37Ra, the MIC was > 25 µg/mL.

Turning to `COc1ccc(F)c(F)c1Cn1ccc2c(C(=O)NCC(F)F)cc(Br)cc21` [A2, 6-bromo-1-(2,3-difluoro-6-methoxybenzyl)-N-(2,2-difluoroethyl)-1H-indole-4-carboxamide], the MIC in the data set with M. tuberculosis H37Ra was > 6.25 µg/mL.

In the case of `COc1ccc(F)c(F)c1Cn1ccc2c(C(=O)NCCF)cc(Br)cc21` [A1], the MIC in the data set on M. tuberculosis H37Ra was > 6.25 µg/mL.

Take `COc1ccc(CN2CCOc3c(C(=O)NCC(F)(F)F)cc(C4CC4)cc32)cc1F` [B24, 6-cyclopropyl-4-(3-fluoro-4-methoxybenzyl)-N-(2,2,2-trifluoroethyl)-3,4-dihydro-2H-benzo[b][1,4]oxazine-8-carboxamide]: the MIC in the data set on M. tuberculosis H37Ra was > 25 µg/mL.

For the compound `COc1c(CN2CCOc3c(C(=O)NCCO)cc(Br)cc32)ccc(F)c1F` [B10, 6-bromo-4-(3,4-difluoro-2-methoxybenzyl)-N-(2-hydroxyethyl)-3,4-dihydro-2H-benzo[b][1,4]oxazine-8-carboxamide], in the data set on M. tuberculosis H37Ra, the MIC was > 100 µg/mL.

Consider `Cc1cc(C)cc(CN2CCOc3c(C(=O)NCC(F)(F)F)cc(C4CC4)cc32)c1` [B22, 6-cyclopropyl-4-(3,5-dimethylbenzyl)-N-(2,2,2-trifluoroethyl)-3,4-dihydro-2H-benzo[b][1,4]oxazine-8-carboxamide], for which the MIC in the data set with M. tuberculosis H37Ra is > 25 µg/mL.

`Cc1nc(C)c(CN2CCOc3c(C(=O)NC4CCC(F)(F)CC4)cc(C4CC4)cc32)nc1C` [B32, 6-cyclopropyl-N-(4,4-difluorocyclohexyl)-4-((3,5,6-trimethylpyrazin-2-yl)methyl)-3,4-dihydro-2H-benzo[b][1,4]oxazine-8-carboxamide]: in the data set on M. tuberculosis H37Ra, the MIC was > 25 µg/mL.

With `Cc1nc(C)c(CN2CCOc3c(C(=O)NCCC(F)(F)F)cc(C4CC4)cc32)nc1C` [B28, 6-cyclopropyl-N-(3,3,3-trifluoropropyl)-4-((3,5,6-trimethylpyrazin-2-yl)methyl)-3,4-dihydro-2H-benzo[b][1,4]oxazine-8-carboxamide], the MIC in the data set with M. tuberculosis H37Ra was > 25 µg/mL.

Consider `Cc1cc(C(=O)NCC(F)F)c2c(c1)N(Cc1nc(C)c(C)nc1C)CCO2` [B11, N-(2,2-difluoroethyl)-6-methyl-4-((3,5,6-trimethylpyrazin-2-yl)methyl)-3,4-dihydro-2H-benzo[b][1,4]oxazine-8-carboxamide], for which the MIC with M. tuberculosis H37Ra is 0.18 µg/mL (≈ 0.461 µM).
